The values that follow come from patent US20240132449A1, “HETEROCYCLIC COMPOUNDS AND METHODS OF USE THEREOF” (1cBio, Inc., priority 2022, published 2024).

In general, IC50 refers to the concentration at which inhibition is half-maximal.

One assay deals with PARP1 (Homo sapiens, UniProt P09874). As to the kind of experiment: PARP1 fluorescence polarization binding assay. Conditions: binding IC50, GST-tagged PARP1 20 nM, PARPi-FL 3 nM. The procedure: Compounds of the present disclosure were tested in a PARP1 fluorescence polarization binding assay at Pharmaron (Beijing, P.R.China). In this biochemical assay, binding of test compound to recombinant human PARP1 reduces the amount of binding of a fluorescent probe, and consequently reduces the detected level of fluorescence polarization. Test compound stock solutions were prepared in DMSO and then serially diluted into 10 concentrations by 3-fold dilution in a 384-well plate using a TECAN EVO200. 60 nL of each dilution was transferred to the plate using an Echo550 (Labcyte), and then 10 μL 40 nM GST-tagged PARP1 (BPS Bioscience, Cat #80501), diluted in assay buffer (50 mM Tris pH 8.0, 0.001% Triton X-100, 10 mM MgCl2, 150 mM NaCl), was added to the plate. After a centrifugation at 1000 rpm for 1 min, the assay plate was incubated for 30 min at RT. 10 μL 6 nM PARPi-FL (TOCRIS, Cat #6461), diluted using assay buffer, was then added to the plate. The final concentrations of PARP1 and PARPi-FL were 20 nM and 3 nM, respectively, in a total volume of 20 μL. After a centrifugation at 1000 rpm for 1 min, the assay plate was incubated for 4 h at RT. Samples in each well were read using an Envision instrument (Perkin-Elmer; Ex=480 nm Em=FITC FP-P pol 535 nm & FITC FP-S pol 535 nm). Percent inhibition was calculated from mP values using Inhibition (%)=[1−(mPc−mPL)/(mPH−mPL)]×100%, where mPc, mPL, and mPH are the mP values of test compound, Low controls, and High controls, respectively. Binding IC50 values were calculated using XLFit (equation 201: y=A+((B−A)/(1+((x/C)^D))), where A=bottom, B=top, C=IC50, and D=slope) with a floating top and bottom for curves. Binding IC50 values are shown in Table A and are presented in ranges, in which “+++”<100 nM, 100 nM≤“++”<3000 nM, and “+”≥3000 nM.
PARP1, sequence (P09874 whole entry): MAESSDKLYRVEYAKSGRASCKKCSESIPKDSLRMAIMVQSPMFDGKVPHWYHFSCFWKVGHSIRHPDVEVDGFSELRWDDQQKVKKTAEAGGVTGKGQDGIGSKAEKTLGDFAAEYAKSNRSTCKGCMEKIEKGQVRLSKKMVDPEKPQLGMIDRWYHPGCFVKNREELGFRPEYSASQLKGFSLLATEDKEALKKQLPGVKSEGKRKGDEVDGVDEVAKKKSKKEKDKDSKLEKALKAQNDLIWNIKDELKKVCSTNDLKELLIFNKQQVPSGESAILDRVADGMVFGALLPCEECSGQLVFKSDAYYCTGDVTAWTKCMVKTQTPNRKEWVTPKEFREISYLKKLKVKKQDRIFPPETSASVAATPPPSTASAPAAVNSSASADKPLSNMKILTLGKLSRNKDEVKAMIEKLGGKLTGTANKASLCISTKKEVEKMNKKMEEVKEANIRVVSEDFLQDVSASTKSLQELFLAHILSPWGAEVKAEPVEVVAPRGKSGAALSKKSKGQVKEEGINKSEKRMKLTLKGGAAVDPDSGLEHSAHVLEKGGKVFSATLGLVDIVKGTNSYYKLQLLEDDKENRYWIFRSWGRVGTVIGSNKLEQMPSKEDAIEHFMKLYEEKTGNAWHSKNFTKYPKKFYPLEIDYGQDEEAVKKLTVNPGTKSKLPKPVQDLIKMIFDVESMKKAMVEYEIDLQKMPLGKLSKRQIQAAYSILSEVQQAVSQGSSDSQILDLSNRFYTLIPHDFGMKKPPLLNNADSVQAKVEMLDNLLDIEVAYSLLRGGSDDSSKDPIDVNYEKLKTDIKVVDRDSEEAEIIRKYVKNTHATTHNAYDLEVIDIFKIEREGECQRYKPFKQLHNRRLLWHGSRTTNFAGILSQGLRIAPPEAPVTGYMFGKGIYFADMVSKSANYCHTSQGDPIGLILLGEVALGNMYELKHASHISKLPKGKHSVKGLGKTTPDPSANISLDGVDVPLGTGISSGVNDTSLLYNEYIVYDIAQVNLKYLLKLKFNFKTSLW

A further assay deals with recombinant human PARP2 (Homo sapiens, UniProt Q9UGN5). As to the kind of experiment: PARP2 fluorescence polarization binding assay. The settings on record: for inhibition at 10 µM: read-out: PARP2 % inh at 10 μM; for IC50: binding IC50, GST-tagged PARP2 20 nM, PARPi-FL 3 nM. Here is the method: Compounds of the present disclosure were tested in a PARP2 fluorescence polarization binding assay at Pharmaron (Beijing, P.R. China). In this biochemical assay, binding of test compound to recombinant human PARP2 reduces the amount of binding of a fluorescent probe, and consequently reduces the detected level of fluorescence polarization. Test compound stock solutions were prepared in DMSO and then serially diluted into 10 concentrations by 3-fold dilution in a 384-well plate using a TECAN EVO200. Alternatively, a single concentration was prepared. 60 nL of each dilution was transferred to the plate using an Echo550 (Labcyte), and then 10 μL 40 nM GST-tagged PARP2 (BPS Bioscience, Cat #80502), diluted in assay buffer (50 mM Tris pH 8.0, 0.001% Triton X-100, 10 mM MgCl2, 150 mM NaCl), was added to the plate. After a centrifugation at 1000 rpm for 1 min, the assay plate was incubated for 30 min at RT. 10 μL 6 nM PARPi-FL (TOCRIS, Cat #6461), diluted using assay buffer, was then added to the plate. […] After a centrifugation at 1000 rpm for 1 min, the assay plate was incubated for 4 h at RT. Samples in each well were read using an Envision instrument (Perkin-Elmer; Ex=480 nm Em=FITC FP-P pol 535 nm & FITC FP-S pol 535 nm). […] Binding IC50 values were calculated using XLFit (equation 201: […])^D))), where A=bottom, B=top, C=IC50, and D=slope) with a floating top and bottom for curves.
recombinant human PARP2, sequence (Q9UGN5 whole entry): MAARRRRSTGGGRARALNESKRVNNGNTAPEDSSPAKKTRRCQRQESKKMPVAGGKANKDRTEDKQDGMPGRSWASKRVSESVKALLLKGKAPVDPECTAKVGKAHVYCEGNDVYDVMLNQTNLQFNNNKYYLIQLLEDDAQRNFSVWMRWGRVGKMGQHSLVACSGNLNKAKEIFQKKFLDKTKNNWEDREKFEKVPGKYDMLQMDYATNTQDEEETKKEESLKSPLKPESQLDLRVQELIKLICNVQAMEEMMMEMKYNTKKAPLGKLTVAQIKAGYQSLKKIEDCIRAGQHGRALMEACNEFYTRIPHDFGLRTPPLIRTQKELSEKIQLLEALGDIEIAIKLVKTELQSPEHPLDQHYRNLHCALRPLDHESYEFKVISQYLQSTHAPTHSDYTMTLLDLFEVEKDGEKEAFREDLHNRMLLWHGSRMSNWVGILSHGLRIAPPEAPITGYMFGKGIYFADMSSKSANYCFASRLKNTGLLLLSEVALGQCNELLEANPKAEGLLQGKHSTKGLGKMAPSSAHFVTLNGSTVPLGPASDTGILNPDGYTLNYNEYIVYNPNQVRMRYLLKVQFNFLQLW

The test system of assay [1] is DLD-1 BRCA2(−/−) colorectal adenocarcinoma cells. As to the kind of experiment: Cell viability assay (Cell Titer-Glo), DLD-1 BRCA2(−/−). It is filed as cell-based. Conditions: Homo sapiens, DLD-1, 168 h; 7 days incubation, 200 cells/well. The procedure:
(§1) Compounds of the present disclosure were tested for their effects on the viability of cancer cells. DLD-1 wild-type and DLD-1 BRCA2(−/−) colorectal adenocarcinoma cells, an isogenic pair of cell lines differing in the presence and absence, respectively, of both BRCA2 alleles, were used. The cells were harvested during the logarithmic growth period, counted, and seeded at 50 cells/well for DLD-1 wild-type and 200 cells/well for DLD-1 BRCA2(−/−) in a 384-well cell culture plate. After seeding, cells were incubated at 37° C., 5% CO2 overnight. Cells were treated with serially diluted test compounds at 10 concentrations (e.g., from 1.5 nM-30 μM) for generation of dose response curves, or at a single concentration. The plate was further incubated for another 7 days in a humidified incubator at 37° C. and 5% CO2. Cell viability was assessed by luminescence measurement after addition of Cell Titer-Glo reagent (Promega, Madison, Wis.) according to the manufacturer's instructions. Cell viability IC50 values were calculated using XLFit, equation 201: y=A+((B−A)/(1+((x/C)^D))), where A=bottom, B=top, C=IC50, and D=slope. IC50 values are shown in Table B and are presented in ranges, in which “+++”<300 nM, 300 nM≤“++”<3000 nM, and “+”≥3000 nM. Values for percent inhibition at 10 μM are also shown in Table B and are presented in ranges, in which “***”≥67%, 33%≤“**”<67%, and “*”<33%. Effects of the test compounds on the viability of other cell lines such as MDA-MB-436, MDA-MB-231, SUM149PT, HCC1395, and UWB1.289 are determined in an analogous method.
(ATP-based viability assays read luminescence as a measure of living cells.)

The test system of assay [2] is DLD-1 wild-type colorectal adenocarcinoma cells. As to the kind of experiment: Cell viability assay (Cell Titer-Glo), DLD-1 wild-type. It is filed as cell-based. Conditions: Homo sapiens, DLD-1, 168 h, 7 days incubation; for inhibition at 10 µM: read-out: DLD-1 wild-type % inh at 10 μM; for IC50: 50 cells/well. The procedure:
as §1

Where a name gives a salt, the structure may show the parent alone.

As to `CCn1c(=O)[nH]c2sc(CN3CCN(c4ccc(C(=O)NC)nc4)CC3)cc2c1=O` [Compound 60, 5-(4-((3-ethyl-2,4-dioxo-1,2,3,4-tetrahydrothieno[2,3-d]pyrimidin-6-yl)methyl)piperazin-1-yl)-N-methylpicolinamide formate], the IC50 at PARP1 is 100 to 3000 nM; in assay [1], > 3000 nM. The inhibition at 10 µM was 33 to 67% on recombinant human PARP2 and < 33% in assay [2].

For `CCn1c(=O)[nH]c2cc(CN3CCN(c4ccc(C(=O)NC)nc4)CC3)sc2c1=O` [Compound 86, 5-(4-((3-ethyl-2,4-dioxo-1,2,3,4-tetrahydrothieno[3,2-d]pyrimidin-6-yl)methyl)piperazin-1-yl)-N-methylpicolinamide formate], the IC50 was < 100 nM on PARP1, > 3000 nM at recombinant human PARP2 and < 300 nM in assay [1]. The inhibition at 10 µM at recombinant human PARP2 was 33 to 67%; in assay [2], < 33%.

Turning to `CCn1c(=O)[nH]c2cc(CN3CC4(C3)CN(c3ccc(C(=O)NC)nc3)C4)ccc2c1=O` [Compound 100, 5-{6-[(3-ethyl-2,4-dioxo-1,2,3,4-tetrahydroquinazolin-7-yl)methyl]-2,6-diazaspiro[3.3]heptan-2-yl}-N-methylpyridine-2-carboxamide hemiformate], the IC50 at PARP1 is 100 to 3000 nM; on recombinant human PARP2 it was > 3000 nM; in assay [1] it was > 3000 nM; in assay [2], > 3000 nM. Also, the inhibition at 10 µM was 33 to 67% on recombinant human PARP2 and < 33% in assay [2].

In the case of `CCn1c(=O)[nH]c2c(F)c(CN3CCN(c4ccc(C(=O)NC)nc4C)CC3)ccc2c1=S` [Compound 184, 5-(4-((3-ethyl-8-fluoro-2-oxo-4-thioxo-1,2,3,4-tetrahydroquinazolin-7-yl)methyl)piperazin-1-yl)-N,6-dimethylpicolinamide], the IC50 at PARP1 was < 100 nM; on recombinant human PARP2, > 3000 nM; in assay [1], < 300 nM; in assay [2], > 3000 nM. The inhibition at 10 µM (at recombinant human PARP2; in assay [2]) was 33 to 67% each time.

`CCN1Cc2ccc(CN3CCN(c4ccc(C(=O)NC)nc4C)CC3)cc2NC1=O` [Compound 202, 5-{4-[(3-ethyl-2-oxo-1,4-dihydroquinazolin-7-yl)methyl]piperazin-1-yl}-N,6-dimethylpyridine-2-carboxamide]: the IC50 is < 100 nM on PARP1, < 300 nM in assay [1] and > 3000 nM in assay [2]. The inhibition at 10 µM at recombinant human PARP2 was 33 to 67%; in assay [2], < 33%.

Turning to `CCN1Cc2ccc(CN3CCN(c4ccc(F)cc4F)CC3)cc2NC1=O` [Compound 225, 7-{[4-(2,4-difluorophenyl)piperazin-1-yl]methyl}-3-ethyl-1,4-dihydroquinazolin-2-one], the results for the IC50 (on PARP1; in assay [1]; in assay [2]) were < 100 nM, > 3000 nM and > 3000 nM, respectively. The inhibition at 10 µM on recombinant human PARP2 is 33 to 67%; in assay [2], < 33%.

For the molecule `CCn1c(=O)[nH]c2cc(CN3CCN(c4ccc(F)cc4F)CC3)ccc2c1=O` [Compound 226, 7-{[4-(2,4-difluorophenyl)piperazin-1-yl]methyl}-3-ethyl-1H-quinazoline-2,4-dione formate], the IC50 on PARP1 is < 100 nM; in assay [1], > 3000 nM; in assay [2] it was > 3000 nM. Also, the inhibition at 10 µM is 33 to 67% on recombinant human PARP2 and < 33% in assay [2].

For `CCn1c(=O)[nH]c2cc(CN3CCN(c4ccc(C(=O)NC)cc4F)CC3)sc2c1=O` [Compound 232], the IC50 was < 100 nM at PARP1, > 3000 nM at recombinant human PARP2, > 3000 nM in assay [1] and > 3000 nM in assay [2]. In addition, the inhibition at 10 µM at recombinant human PARP2 was 33 to 67%; in assay [2] it was < 33%.

As for `CCC(=O)c1ccc(N2CCN(Cc3cc4[nH]c(=O)n(CC)c(=O)c4s3)CC2)c(C)n1` [Compound 326, 3-ethyl-6-((4-(2-methyl-6-propionylpyridin-3-yl)piperazin-1-yl)methyl) thieno[3,2-d]pyrimidine-2,4(1H,3H)-dione formate], the IC50 at PARP1 is < 100 nM; on recombinant human PARP2, > 3000 nM; in assay [1], > 3000 nM; in assay [2] it was > 3000 nM. Besides, the inhibition at 10 µM is 33 to 67% at recombinant human PARP2 and < 33% in assay [2].

`CCn1c(=O)[nH]c2cc(CN3CCN(c4cnc5c(NC)nccc5c4)CC3)sc2c1=O` [Compound 360, 3-ethyl-6-((4-(8-(methylamino)-1,7-naphthyridin-3-yl)piperazin-1-yl)methyl)thieno[3,2-d]pyrimidine-2,4(1H,3H)-dione formate]: the IC50 on PARP1 is < 100 nM; at recombinant human PARP2, > 3000 nM; in assay [1] it was > 3000 nM; in assay [2], > 3000 nM. Also, the inhibition at 10 µM (on recombinant human PARP2; in assay [2]) was 33 to 67% throughout.

On to `CCn1c(=O)[nH]c2cc(CN3CCC(c4ccc(C(=O)NC)nc4C)CC3)ccc2c1=S` [Compound 498, 5-(1-((3-ethyl-2-oxo-4-thioxo-1,2,3,4-tetrahydroquinazolin-7-yl)methyl)piperidin-4-yl)-N,6-dimethylpicolinamide formate], for which the IC50 on PARP1 was < 100 nM; on recombinant human PARP2 it was > 3000 nM; in assay [1] it was > 3000 nM; in assay [2] it was > 3000 nM. Moreover, the inhibition at 10 µM (at recombinant human PARP2; in assay [2]) was 33 to 67% in each case.

For the molecule `CCn1c(=O)[nH]c2cc(CN3CCN(c4ccc(C(=O)NC)nc4C)CC3)cc(Br)c2c1=S` [Compound 501, 5-(4-((5-bromo-3-ethyl-2-oxo-4-thioxo-1,2,3,4-tetrahydroquinazolin-7-yl)methyl)piperazin-1-yl)-N,6-dimethylpicolinamide formate], the IC50 at PARP1 is < 100 nM; at recombinant human PARP2, > 3000 nM; in assay [1] it was 300 to 3000 nM; in assay [2], > 3000 nM. Further, the inhibition at 10 µM on recombinant human PARP2 is 33 to 67%; in assay [2], < 33%.
